Source: ChEMBL document CHEMBL1201862, “PubChem BioAssay data set” (2004)
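Compound exposure: 48 hours, 5 concentrations, 96-well plates. GI50 marks 50% less growth.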 Active and inactive are the calls of the source. Cut-off read from the data, not from the text of the source: active = GI50 up to about 1.1 µM and inactive = higher.

What was measured:
Assay in all cases: NCI anticancer screen, dose series, 48 h
[1] = system: MOLT-4
[2] = system: MCF7
[3] = system: SNB-19
[4] = system: HOP-62
[5] = system: SK-MEL-5
[6] = system: HL-60
[7] = system: TK-10
[8] = system: EKVX
[9] = system: PC-3
[10] = system: SK-MEL-28
[11] = system: SF-295
[12] = system: RXF 393
[13] = system: HCT-15
[14] = system: MDA-MB-231
[15] = system: SF-268
[16] = system: SF-539
[17] = system: NCI-H460
[18] = system: OVCAR-8
[19] = system: SNB-75
[20] = system: BT-549

Row | SMILES | GI50 [1] | GI50 [2] | GI50 [3] | GI50 [4] | GI50 [5] | GI50 [6] | GI50 [7] | GI50 [8] | GI50 [9] | GI50 [10] | GI50 [11] | GI50 [12] | GI50 [13] [µM] | GI50 [14] | GI50 [15] | GI50 [16] | GI50 [17] | GI50 [18] | GI50 [19] | GI50 [20]
1 | COc1cc2nc(-c3ccccc3)cc(O)c2cc1OC | 17.6 µM (inactive) | 2.54 µM (inactive) | 25.2 µM (inactive) | 19 µM (inactive) | 5.78 µM (inactive) | 5.78 µM (inactive) | 55.8 µM (inactive) | > 100 µM (inactive) | 23 µM (inactive) | 36.2 µM (inactive) | 18.5 µM (inactive) | 21.2 µM (inactive) | 10.2 | 26.7 µM (inactive) | 41.6 µM (inactive) | 14.3 µM (inactive) | 11.2 µM (inactive) | 35.1 µM (inactive) | 12.1 µM (inactive) | > 100 µM (inactive)
2 | CO/N=C(\C)c1ccc(Nc2c3ccccc3nc3occc23)cc1 | 0.366 µM (active) | 0.168 µM (active) | 2.05 µM (inactive) | 1.27 µM (inactive) | 0.323 µM (active) | 0.254 µM (active) | 1.21 µM (inactive) | 3.74 µM (inactive) | 0.527 µM (active) | 1.43 µM (inactive) | 0.207 µM (active) | 0.0813 µM (active) | 0.191 | 0.741 µM (active) | 0.718 µM (active) | 0.383 µM (active) | 0.426 µM (active) | 0.841 µM (active) | 0.41 µM (active) | 0.845 µM (active)
3 | Cc1nnc2n(c1=O)CCN2C | > 100 µM (inactive) | > 100 µM (inactive) | > 100 µM (inactive) | > 100 µM (inactive) | > 100 µM (inactive) | > 100 µM (inactive) | > 100 µM (inactive) | > 100 µM (inactive) | > 100 µM (inactive) | > 100 µM (inactive) | > 100 µM (inactive) | > 100 µM (inactive) | > 100 | > 100 µM (inactive) | > 100 µM (inactive) | > 100 µM (inactive) | > 100 µM (inactive) | > 100 µM (inactive) | 89.7 µM (inactive) | > 100 µM (inactive)
4 | CN(NC(=O)c1cccs1)C1=NCCN1 | > 100 µM (inactive) | > 100 µM (inactive) | > 100 µM (inactive) | > 100 µM (inactive) | > 100 µM (inactive) | > 100 µM (inactive) | 23.8 µM (inactive) | > 100 µM (inactive) | > 100 µM (inactive) | > 100 µM (inactive) | > 100 µM (inactive) | > 100 µM (inactive) | > 100 | > 100 µM (inactive) | > 100 µM (inactive) | > 100 µM (inactive) | > 100 µM (inactive) | > 100 µM (inactive) | > 100 µM (inactive) | > 100 µM (inactive)
5 | O=c1c2ccccc2n2cnc3ccc(NCCNCCO)c1c32 | 0.359 µM (active) | 2.52 µM (inactive) | 3.78 µM (inactive) | 1.4 µM (inactive) | 1.88 µM (inactive) | 2.42 µM (inactive) | 2.92 µM (inactive) | 2.56 µM (inactive) | 1.91 µM (inactive) | 3.18 µM (inactive) | 1.83 µM (inactive) | 0.757 µM (active) | 3.18 | 2.31 µM (inactive) | 1.46 µM (inactive) | 3.24 µM (inactive) | 0.536 µM (active) | 0.855 µM (active) | 1.86 µM (inactive) | 3.66 µM (inactive)
6 | O=C(/C=C/c1ccccc1Br)c1ccccc1 | 2.84 µM (inactive) | 0.427 µM (active) | 10.9 µM (inactive) | 13.4 µM (inactive) | 9.31 µM (inactive) | 1.35 µM (inactive) | 2.17 µM (inactive) | 13 µM (inactive) | 11.4 µM (inactive) | 3.69 µM (inactive) | 11.3 µM (inactive) | 7.82 µM (inactive) | 2.11 | 13.2 µM (inactive) | 3.58 µM (inactive) | 4.1 µM (inactive) | 4.37 µM (inactive) | 2.63 µM (inactive) | 12 µM (inactive) | 13.6 µM (inactive)
